For the experiment, the system named is MIAPACA2 cells. Nature of the experiment: 13C9-Tyr tracing in MIAPACA2 cells with the indicated reagents. It is filed as cell-based, human. The text has this: 4-HMA biosynthesis has only been described in some bacteria and in rabbits. […] The production of 4-HPPA occurs in the first step of tyrosine (Tyr) catabolism via tyrosine transaminase (TAT). In rabbits, 4-HMA was proposed to be synthesized from the degradation of tyramine and octopamine by dopamine β-hydroxylase (Dbh) and monoamine oxidase (Mao) (FIG. 9A)^13. Tyramine is also a Tyr-derived metabolite. Therefore, all known substrates required to generate 4-HMA are derived from Tyr. In addition, Tyr can also be made from phenylalanine (Phe) by Phe hydroxylase (PAH) in mammalian liver cells^14. To elucidate the human 4-HMA biosynthetic pathway, the fates of ^13C9-Tyr and ^13C6-Phe were traced in human cells. […] Additionally, the generation of 4-HMA by […] would result in the incorporation of a single ^18O at the Ca position of the carboxylic acid of 4-HMA (FIG. 9A). However, this was not observed by ^18O labelling (FIG. 8B). Therefore, it was unlikely that 4-HMA biosynthesis from octopamine and tyramine catabolism occurred in the present system.
Unexpectedly, 4-HMA levels also were lower in hyperoxic (21%) conditions compared to 3% O2, reflecting either decreased production or increased consumption of this metabolite at 21% O2.
Therefore, CoQ10 was used as an indirect readout of 4-HB production. To assess the ability of human cells to biosynthesize CoQ10, cells were labelled with ^13C6-Phe or ^13C9-Tyr. CoQ10 was completely biosynthesized from Tyr, but not Phe, in human cells (FIG. 11B).
For metabolomics, briefly, cells were washed in 4° C. 0.9% saline and metabolites were extracted with 46% methanol:23% H2O:[…] chloroform that contained a labelled amino acid standard mix (MSK-A2-1.2, Cambridge Isotope Laboratories, Inc.). Enzymatic assay samples were extracted using 80% methanol: 20% H2O that contained labelled amino acid standards. Extracts were placed into 1.5 mL Eppendorf tubes, vortexed at 4° C. for 10 min and centrifuged at 4° C. for 10 min at 17,200×g in a microcentrifuge. The aqueous phase was transferred to vials for GC-MS or Eppendorf tubes for LC-MS. Polar samples were evaporated in a SpeedVac and samples were resolved by GC-MS or LC-MS. Lipid samples were dried using a stream of N2 (for ^18O labelling studies) or air. Metabolite and lipid extracts were submitted to the NYULMC Metabolomics Core Resource Laboratory.
For polar metabolomics, the LC column was a Millipore ZIC-pHILIC (2.1×150 […], 5 μm bead size) coupled to a Dionex UltiMate 3000 system. The column oven temperature was held at 25° C. The flow rate was 100 μL/min, and the injection volume was 1 μL. Buffer A was 10 mM ammonium carbonate in water, pH 9, and Buffer B was neat acetonitrile. The gradient profile was 80-20% B (0-30 min), 20-80% B (30-31 min), and 80-80% B (31-42 min). MS Analyses were carried out on a Thermo Q Exactive HF mass spectrometer using a heated electrospray ionization (HESI) source. The method duration was 30 min using a polarity-switching, top 5 method. The spray voltage for both positive and negative ion modes was 3.5 kV. The capillary temperature was 320° C. with a maximum spray current of 100 ρA. The full MS scan was carried out at 120,000 resolution with a scan range of 67-1000 m/z. For ^18O2 labelling experiments, full MS scans were carried out at 240,000 resolution at the same scan range. Tandem MS spectra were obtained at 15,000 resolution. All data were acquired in profile mode. Peak heights were analyzed using Xcalibur (ThermoFisher Scientific).
Lipid metabolomics were acquired using a Waters CSH-C18 (2.1×100 mm, 1.7 μm) column coupled to a Dionex UltiMate 3000 system. The column oven temperature was held at 55° C. The flow rate was 300 μL/min and the injection volume was 1 μL. Buffer A was 60:40 acetonitrile:water, 0.1% formic acid and Buffer B was 90:10 isopropanol:acetonitrile, 10 mM ammonium formate. […]

“Also recorded” adds a separate entry of the source.

With `O=C(O)c1ccc(O)c2ncccc12` [IOX1], where the note is “3% 16O2, 24 hours”, the “13C9-Tyr-derived 4-HMA” value was “attenuated or ablated; also recorded: severely inhibited” and the “CoQ10 labelling from 13C9-Tyr (incorporation of tyrosine into CoQ10)” value is given as “eliminated; also recorded: completely blocked”. Besides, the 4-HPLA pools entry (13C-Tyr, 3% O2, 24 hours) is reported as “increased”.

For the origin of these results see patent publication US12558329B2 (New York University, priority 2021, dated 2026).
